From patent US11576911B2, “Composition and method for treatment of depression and psychosis in humans” (Glytech LLC, priority 2012, dated 2023)

Tests used:
Male C57Bl/6J mice [1] = test: Elevated plus maze (EPM), DOI 2 mg/kg in all conditions; type: in vivo; conditions: for Mean distance travelled in the open arm of the EPM: Table 6, DOI 2 mg/kg added; for DTO Mean / PCT Mean: Table 2; for Distance travelled in the open arm relative to the vehicle, in words: Table 6 doses, DOI 2 mg/kg added in all conditions; for Reversal of 5-HT2A antagonist induced reductions in open arm measures of the EPM, in words: NMDAR antagonists, summary of Example 1; for Effect on distance travelled in open arm / % time in open arm of EPM, in words: agent alone vs control, doses of Tables 1 and 2; for Distance Traveled Open (DTO) Mean / Percent open (PCT) Mean: Table 1; for Effect on open arm behavior in the EPM, in words: non-competitive NMDAR antagonist with MDL100907 .3 mg/kg (Table 1 lines 8,9); for Total distance travelled in the EPM, in words: with MDL100907 .3 mg/kg (Table 1 lines 8,9)
Male BalbC/J mice = test: Rodent forced swim test (FST), immobility time; type: in vivo; design: key to Mean immobility time in the rodent forced swim test (FST): seconds of immobility over the 6-min test; conditions: for Mean immobility time in the rodent forced swim test (FST): Table 5; for Effect on immobility in the FST, in words: at indicated doses of Table 5; for immobility time in the rodent forced swim test (FST), Mean: Table 3
Text: Male BalbC/J mice (8 weeks old) from Jackson Laboratories (Bar Harbor, Me.) were used. Upon receipt, mice were assigned unique identification numbers (tail marked) and were group housed in OPTImice cages. All animals were acclimated to the colony room for 1 week prior to testing. During the period of acclimation, animals were examined on a regular basis, handled, and weighed to assure adequate health and suitability. Animals were maintained on a 12/12 light/dark cycle. The room temperature was maintained between 20 and 23° C. with a relative humidity maintained between 30% and 70%. Chow and water were provided ad libitum for the duration of the study. All testing was performed during the animal's light cycle phase.
Mice were acclimated to the test room at least 1 hour prior to commencing the test. The forced swimming test consisted of one 6-minute session of forced swimming in individual opaque cylinders (15 cm tall×10 cm wide, 1000 ml beakers) containing fresh tap water at a temperature of 23±2° C. and a depth of 12 cm (approximately 800 ml) for each test animal. The time the animal spent immobile was recorded over the 6 min trial. Every 1 min the cumulative immobility time was recorded from the start of the session and noted on the study data record sheet. Immobility was defined as the postural position of floating in the water. The animals were generally observed with the back slightly hunched and the head above water with no movements or with small stabilizing movements of the limbs. After the swim test, each animal was placed in a pre-heated cage with a heating pad and allowed to dry.
The main variable used to represent immobility in this test was the total time immobile during the 6-min test period. Statistics were performed by analysis of variance (ANOVA) with Dunnett post-hoc testing vs. the control condition or by t-test as appropriate.
Sertraline, a known antidepressant, is used as a positive control.
For this study, further NMDAR antagonist compounds were tested for their ability to reduce immobility time in the rodent FST test, indicative of potential anti-depressant effects, and further 5-HT2AR antagonists were tested for their ability to produce reductions of time spent in the open arms of the EPM, indicative to potential liability to induce anxiety, akathisia and suicidality in humans

Male C57Bl/6J mice [2] = conditions: selective 5-HT2A antagonist alone; previously demonstrated (U.S. Pat. No. 9,846,453); cited from earlier work

N#Cc1c[nH]c2c(C(=O)N3CCN(CCc4ccc(F)cc4)CC3)cccc12 [EMD281014]
Mean distance travelled in the open arm of the EPM (Male C57Bl/6J mice [1]; 1 mg/kg): 111.00 | Mean distance travelled in the open arm of the EPM (Male C57Bl/6J mice [1]; 3 mg/kg): 42.70 | Mean distance travelled in the open arm of the EPM (Male C57Bl/6J mice [1]; 10 mg/kg): 44.80

Cc1nc2n(c(=O)c1CCN1CCC(c3noc4cc(F)ccc34)CC1)CCCC2 [Risperidone]
DTO Mean (Male C57Bl/6J mice [1]; 1 mg/kg alone): 0.0 | PCT Mean (Male C57Bl/6J mice [1]; 1 mg/kg alone): 0.0% | Mean distance travelled in the open arm of the EPM (Male C57Bl/6J mice [1]; 1 mg/kg): 5.30

CNCCC(Oc1ccc(C(F)(F)F)cc1)c1ccccc1 (centres unmarked) [Fluoxetine]
Mean distance travelled in the open arm of the EPM (Male C57Bl/6J mice [1]; 10 mg/kg): 216.70 | Distance travelled in the open arm relative to the vehicle, in words (Male C57Bl/6J mice [1]): no significant effects

O=C(O)[C@H]1C[C@@H](CP(=O)(O)O)CCN1 (relative stereo) [CGS-19755, cis-4-(phosphonomethyl)-2-piperidinecarboxylic acid]
Reversal of 5-HT2A antagonist induced reductions in open arm measures of the EPM, in words (Male C57Bl/6J mice [1]): Pro-therapeutic effects | Mean immobility time in the rodent forced swim test (FST) (Male BalbC/J mice; 0.03 mg/kg): 125.60 | Mean immobility time in the rodent forced swim test (FST) (Male BalbC/J mice; 0.1 mg/kg): 144.30 | Mean immobility time in the rodent forced swim test (FST) (Male BalbC/J mice; 0.3 mg/kg): 120.00 | Mean immobility time in the rodent forced swim test (FST) (Male BalbC/J mice; 1.0 mg/kg): 137.20 | Mean immobility time in the rodent forced swim test (FST) (Male BalbC/J mice; 3.0 mg/kg): 154.90 | Mean immobility time in the rodent forced swim test (FST) (Male BalbC/J mice; 10 mg/kg): 114.70 | Effect on immobility in the FST, in words (Male BalbC/J mice): numerically reduce immobility

OCCOCCN1CCN(C2=Nc3ccccc3Sc3ccccc32)CC1 [Quetiapine]
DTO Mean (Male C57Bl/6J mice [1]; 30 mg/kg alone): 42.8 | PCT Mean (Male C57Bl/6J mice [1]; 30 mg/kg alone): 9.0%

CN(C)CCCN1c2ccccc2CCc2ccccc21 [Imipramine]
Mean distance travelled in the open arm of the EPM (Male C57Bl/6J mice [1]; 10 mg/kg): 235.00 | Distance travelled in the open arm relative to the vehicle, in words (Male C57Bl/6J mice [1]): no significant effects

CN[C@H]1CC[C@@H](c2ccc(Cl)c(Cl)c2)c2ccccc21 [Sertraline]
Mean immobility time in the rodent forced swim test (FST) (Male BalbC/J mice; 20 mg/kg): 85.50

O=C(O)[C@H]1CN(C/C=C/P(=O)(O)O)CCN1 [D-CPPene, D-(E)-4-(3-phosphonoprop-2-enyl)piperazine-2-carboxylic acid]
Reversal of 5-HT2A antagonist induced reductions in open arm measures of the EPM, in words (Male C57Bl/6J mice [1]): Pro-therapeutic effects | Mean immobility time in the rodent forced swim test (FST) (Male BalbC/J mice; 0.03 mg/kg): 124.20 | Mean immobility time in the rodent forced swim test (FST) (Male BalbC/J mice; 0.1 mg/kg): 153.40 | Mean immobility time in the rodent forced swim test (FST) (Male BalbC/J mice; 0.3 mg/kg): 129.10 | Mean immobility time in the rodent forced swim test (FST) (Male BalbC/J mice; 1.0 mg/kg): 156.80 | Mean immobility time in the rodent forced swim test (FST) (Male BalbC/J mice; 3.0 mg/kg): 124.60 | Mean immobility time in the rodent forced swim test (FST) (Male BalbC/J mice; 10 mg/kg): 141.20

COc1ccc(C(CN(C)C)C2(O)CCCCC2)cc1 (centres unmarked) [Venflaxine]
Mean distance travelled in the open arm of the EPM (Male C57Bl/6J mice [1]; 40 mg/kg): 224.60

O=C1CCc2ccc(OCCCCN3CCN(c4cccc(Cl)c4Cl)CC3)cc2N1 [Aripiprazole]
DTO Mean (Male C57Bl/6J mice [1]; 1 mg/kg alone): 113.9 | PCT Mean (Male C57Bl/6J mice [1]; 1 mg/kg alone): 34.9% | Effect on distance travelled in open arm / % time in open arm of EPM, in words (Male C57Bl/6J mice [1]): significantly decreased distance travelled in the open arm, but not % of time in the open arm

CN(C)C(=O)N[C@H]1CC[C@H](CCN2CCN(c3cccc(Cl)c3Cl)CC2)CC1 [Cariprazine]
Mean distance travelled in the open arm of the EPM (Male C57Bl/6J mice [1]; 0.03 mg/kg): 186.00 | Mean distance travelled in the open arm of the EPM (Male C57Bl/6J mice [1]; 0.1 mg/kg): 174.30 | Mean distance travelled in the open arm of the EPM (Male C57Bl/6J mice [1]; 1 mg/kg): 69.70

CC(C)COc1ccc(CNC(=O)N(Cc2ccc(F)cc2)C2CCN(C)CC2)cc1 [Pimavanserin]
Mean distance travelled in the open arm of the EPM (Male C57Bl/6J mice [1]; 0.3 mg/kg): 150.20 | Mean distance travelled in the open arm of the EPM (Male C57Bl/6J mice [1]; 1 mg/kg): 204.10 | Mean distance travelled in the open arm of the EPM (Male C57Bl/6J mice [1]; 10 mg/kg): 66.50 | Distance travelled in the open arm relative to the vehicle, in words (Male C57Bl/6J mice [1]): significantly reduced

O=C(/C=C/c1c(C(=O)O)[nH]c2cc(Cl)cc(Cl)c12)Nc1ccccc1 [Gavestinel]
Mean immobility time in the rodent forced swim test (FST) (Male BalbC/J mice; 0.1 mg/kg): 136.10 | Mean immobility time in the rodent forced swim test (FST) (Male BalbC/J mice; 0.3 mg/kg): 116.30 | Mean immobility time in the rodent forced swim test (FST) (Male BalbC/J mice; 1.0 mg/kg): 109.60 | Mean immobility time in the rodent forced swim test (FST) (Male BalbC/J mice; 3.0 mg/kg): 122.70 | Mean immobility time in the rodent forced swim test (FST) (Male BalbC/J mice; 10 mg/kg): 111.40 | Mean immobility time in the rodent forced swim test (FST) (Male BalbC/J mice; 30 mg/kg): 131.90 | Effect on immobility in the FST, in words (Male BalbC/J mice): numerically reduce immobility

COc1cccc([C@H](O)C2CCN(CCc3ccc(F)cc3)CC2)c1OC [MDL100907]
Distance Traveled Open (DTO) Mean (Male C57Bl/6J mice [1]; .3 mg/kg alone): 114.3 | Percent open (PCT) Mean (Male C57Bl/6J mice [1]; .3 mg/kg alone): 19.2% | Effect on distance travelled in open arm / % time in open arm of EPM, in words (Male C57Bl/6J mice [1]): significantly reduces both distance travelled in the open arm and % open arm activity | Distance travelled in the open arm and % time in the open arm, in words (Male C57Bl/6J mice [2]): significantly reduced

CN(C)CCO/N=C(/C=C/c1ccc(O)cc1)c1ccccc1F [SR46349B]
Mean distance travelled in the open arm of the EPM (Male C57Bl/6J mice [1]; 0.3 mg/kg): 127.10 | Mean distance travelled in the open arm of the EPM (Male C57Bl/6J mice [1]; 1 mg/kg): 98.00 | Mean distance travelled in the open arm of the EPM (Male C57Bl/6J mice [1]; 10 mg/kg): 105.90

O=C(c1ccc(F)cc1)C1CCN(CCn2c(=O)[nH]c3ccccc3c2=O)CC1 [ketanserin]
Distance travelled in the open arm and % time in the open arm, in words (Male C57Bl/6J mice [2]): significantly reduced

Cc1ccc(Sc2ccccc2N2CCNCC2)c(C)c1 [Vortioxetine]
Mean distance travelled in the open arm of the EPM (Male C57Bl/6J mice [1]; 10 mg/kg): 237.90 | Distance travelled in the open arm relative to the vehicle, in words (Male C57Bl/6J mice [1]): no significant effects

CCN(CC)C(=O)[C@@]1(c2ccccc2)C[C@H]1CN [Levomilnacipran]
Mean distance travelled in the open arm of the EPM (Male C57Bl/6J mice [1]; 40 mg/kg): 237.90 | Distance travelled in the open arm relative to the vehicle, in words (Male C57Bl/6J mice [1]): no significant effects

O=c1ccc2ccc(OCCCCN3CCN(c4cccc5sccc45)CC3)cc2[nH]1 [Brexpiprazole]
DTO Mean (Male C57Bl/6J mice [1]; .3 mg/kg alone): 131.6 | PCT Mean (Male C57Bl/6J mice [1]; .3 mg/kg alone): 28.7% | Mean distance travelled in the open arm of the EPM (Male C57Bl/6J mice [1]; 0.1 mg/kg): 160.10 | Mean distance travelled in the open arm of the EPM (Male C57Bl/6J mice [1]; 0.3 mg/kg): 204.70 | Mean distance travelled in the open arm of the EPM (Male C57Bl/6J mice [1]; 1 mg/kg): 93.70 | immobility time in the rodent forced swim test (FST), Mean (Male BalbC/J mice; .3 mpk alone): 239 s | Effect on immobility in the forced swim test, in words (Male BalbC/J mice; agent alone (Table 3)): significantly increased immobility

c1ccc(C2(N3CCCCC3)CCCCC2)cc1 [PCP]
Reversal of 5-HT2A antagonist induced reductions in open arm measures of the EPM, in words (Male C57Bl/6J mice [1]): worsened performance relative to DCS | Effect on open arm behavior in the EPM, in words (Male C57Bl/6J mice [1]): did not significantly affect open arm behavior | Total distance travelled in the EPM, in words (Male C57Bl/6J mice [1]): reduced total distance travelled

C[C@@H]([C@@H](O)c1ccc(O)cc1)N1CCC(O)(c2ccccc2)CC1 [CP101606]
Reversal of 5-HT2A antagonist induced reductions in open arm measures of the EPM, in words (Male C57Bl/6J mice [1]): Pro-therapeutic effects

O=C1[C@@H]2[C@H]3CC[C@H](C3)[C@@H]2C(=O)N1C[C@@H]1CCCC[C@H]1CN1CCN(c2nsc3ccccc23)CC1 [Lurasidone]
DTO Mean (Male C57Bl/6J mice [1]; .1 mg/kg alone): 172.9 | PCT Mean (Male C57Bl/6J mice [1]; .1 mg/kg alone): 32.5% | DTO Mean (Male C57Bl/6J mice [1]; .2 mg/kg alone): 120.8 | PCT Mean (Male C57Bl/6J mice [1]; .2 mg/kg alone): 22.9% | DTO Mean (Male C57Bl/6J mice [1]; .3 mg/kg alone): 134.2 | PCT Mean (Male C57Bl/6J mice [1]; .3 mg/kg alone): 26.6% | immobility time in the rodent forced swim test (FST), Mean (Male BalbC/J mice; 1 mpk alone): 157 s | immobility time in the rodent forced swim test (FST), Mean (Male BalbC/J mice; 3 mpk alone): 169 s | immobility time in the rodent forced swim test (FST), Mean (Male BalbC/J mice; .2 mpk alone): 146 s

CNC1(c2ccccc2Cl)CCCCC1=O (racemic) [ketamine, (R,S)-2-(2-Chlorphenyl)-2-(methylamino)cyclohexan-1-on]
Distance Traveled Open (DTO) Mean (Male C57Bl/6J mice [1]; 10 mg/kg ip alone): 194.5 | Percent open (PCT) Mean (Male C57Bl/6J mice [1]; 10 mg/kg ip alone): 40.3% | Effect on distance travelled in open arm / % time in open arm of EPM, in words (Male C57Bl/6J mice [1]): does not significantly alter either distance traveled in the open arm or % time in the open arm | Effect on open arm behavior in the EPM, in words (Male C57Bl/6J mice [1]): did not significantly affect open arm behavior | Total distance travelled in the EPM, in words (Male C57Bl/6J mice [1]): reduced total distance travelled
